# Measurements as given in paper PMC1361622 (2006).
# System: construct 1 (consensus-type glmS ribozyme, A6 and A58) (RNA, ribozyme) GGUAAAUUAUAAAAGCGCCAGAACUACAGAAAUGUAGUUGACGAGGAGGAGGUUUAUCGAAUUUUCGGCGGAUGCCUCC
# Assay: half-maximal kobs of ligand-dependent self-cleavage
# Settings: 20 mM Mg2+; 50 mM Tris-HCl pH 7.5, 23 °C; GlcN6P varied
structure (smiles),measurement,value
N[C@H]1C(O)O[C@H](COP(=O)(O)O)[C@@H](O)[C@@H]1O (stereo partly shown),apparent Kd,~ 200 µM
